Source: patent US20230000876A1, “TREATING CANCERS WITH A CYCLIN-DEPENDENT KINASE INHIBITOR” (Nuvation Bio Inc., priority 2021, published 2023)

Key:
[1] = test system: KM12-luc; test: CellTiter-Glo anti-proliferation assay, KM12-luc; type: cell-based
Experimental: (§1) The anti-proliferation effect of 2 compounds (the compound of formula (I) and temozolomide) in 7 CNS metastasis cell lines (MOLT-4-luc, Nalm-6-luc, NCI-H460-luc, ACHN-luc2, PC-9-luc, H1975-luc, and KM12-luc) was evaluated.
(§2) The plating of cells and compound treatments are shown below in the plate map (Table 12). One plate was needed for the test of 2 compounds (the compound of formula (I) and temozolomide) in one cell line. The compound of formula (I) was tested from 10 μM, 3-fold serial dilution. Temozolomide was tested from 100 μM, 3-fold serial dilution.
(§3) All the cell lines were maintained in culture conditions at 37° C. in an atmosphere with 5% CO2 in air. The tumor cells were routinely subcultured. The cells growing in an exponential growth phase were harvested and counted for plating.
(§4) Cells were counted by haemocytometer with Trypan blue staining. Next, 135 μL of cell suspension were plated into the assay plates according to the plate map and 135 μL of assay medium into the blank wells. The plates were incubated at 37° C., 5% CO2, 95% air and 100% relative humidity overnight.
(§5) 4.4.4 Compound Plate (10×) Preparation and Compound Treatment • 10× concentrate compound plate preparation: Add 198 μL of assay medium into each well of the V-bottom plate; then transfer 2 μL of the stock compound solution of each concentration from the stock plate. Add 2 μL of DMSO into the Blank and Control wells. Pipette up and down to mix well. This V-plate is designated as the 10× concentrate compound plate. • For day 0 plate, add 15 μL of the DMSO-medium into the Control wells. The final DMSO concentration was 0.1%. Then directly proceed to cell viability assay. • For assay plate, add 15 μL of the compound-medium of each well from the 10× concentrate compound plate into the cells in 96-well assay plate according to the plate map. Add 15 μL of the DMSO-medium into the Blank and Control wells. The final DMSO concentration was 0.1%. • Return the assay plate into incubator and incubate for 6 days.
(§6) The procedures were performed according to the Promega CellTiter-Glo Luminescent Cell Viability Assay Kit manual (Promega-G7573). • The CellTiter-Glo buffer was thawed and equilibrated to room temperature prior to use. • CellTiter-Glo Substrate was equilibrated to room temperature prior to use. • The entire liquid volume of CellTiter-Glo Buffer was transferred into the amber bottle containing CellTiter-Glo Substrate to reconstitute the lyophilized enzyme/substrate mixture. This forms the CellTiter-Glo Reagent. • The contents were mixed by gently vortexing to obtain a homogeneous solution. • The plate was equilibrated and its contents to room temperature for approximately 30 minutes. 75 μL (equal to the half volume of culture medium present in each well) CellTiter-Glo • Reagent was added in each well. Plates were covered with aluminum foil to protect from light. • The contents were mixed for 2 minutes on an orbital shaker to induce cell lysis. • The plate was incubated at room temperature for 20 minutes to stabilize luminescent signal. • Record luminescence on the 2104 EnVision plate reader.
(§7) Inhibition rate (IR) of the tested compounds was determined by the following formula: IR (%)=(1−(RLU compound−RLU day0)/(RLU control−RLU day0))*100%. The inhibitions of different dose of compound were calculated in Excel file, and then were used to plot inhibition curves and evaluate related parameters, such as Min (%), Max (%) and GI50. The data were interpreted by GraphPad Prism.

[2] = test system: H1975-luc; test: CellTiter-Glo anti-proliferation assay, H1975-luc; type: cell-based
Experimental: as §1, §2, §3, §4, §5, §6, §7

[3] = test system: U-118MG xenograft tumors; test: U-118MG glioma subcutaneous xenograft model; type: in vivo, female CB17 SCID mice; conditions: QD; for Tumor volume (mean ± SEM): 1 mg/kg PO
Experimental: The tumor cells were routinely subcultured twice weekly. The cells growing in an exponential growth phase were harvested and counted for tumor inoculation.
The treatments was started on day 7 after tumor inoculation when the average tumor volume reached 150 mm^3. 60 mice were selected and assigned into 6 groups. The testing articles were administrated to the mice according to Table 1.
Tumor size was measured twice weekly in two dimensions using a caliper, and the volume was expressed in mm^3 using the formula: V=0.5 a×b^2 where a and b are the long and short diameters of the tumor, respectively. The tumor sizes are then used for the calculation of T/C and TGI values.
The T/C value (in percent) is an indication of antitumor effectiveness; T and C are the mean volume of the treated and control groups, respectively, on a given day.
TGI was calculated for each group using the formula: TGI (%)=[1−(Ti−T0)/(Vi−V0)]×100; Ti is the average tumor volume of a treatment group on PG-D28 T0 is the average tumor volume of the treatment group on the day of treatment start, Vi is the average tumor volume of the vehicle control group on the same day with Ti, and V0 is the average tumor volume of the vehicle group on the day of treatment start.
All Groups were taken down on PG-D28, tumor, plasma and brain samples were collected.
For statistical analysis for difference among groups 2-6 and group 1, a one-way ANOVA was performed. All the analysis were conducted using GraphPad Prism software. p<0.05 was considered to be statistically significant.

[4] = test system: Nalm-6-luc; test: CellTiter-Glo anti-proliferation assay, Nalm-6-luc; type: cell-based
Experimental: as §1, §2, §3, §4, §5, §6, §7

[5] = test system: PC-9-luc; test: CellTiter-Glo anti-proliferation assay, PC-9-luc; type: cell-based
Experimental: as §1, §2, §3, §4, §5, §6, §7

[6] = test system: U-87MG-luc orthotopic intracranial tumors; test: U-87MG-luc glioblastoma orthotopic intracranial model, survival; type: in vivo, female BALB/c nude mice; conditions: 1 mg/kg PO*QD × 5/7 days (vehicle 37 days)
Experimental: U-87MG-luc cells were derived from U-87MG parental cells acquired from ATCC by stably introducing the gene that encodes the luciferase (luc) protein. The U-87MG-luc cells were cultured at 37° C. in an atmosphere of 5% CO2 in air. The tumor cells were routinely subcultured twice weekly. The cells growing in an exponential growth phase were harvested and counted for tumor inoculation.
3×10^5 U-87MG-luc tumor cells were micro-injected into the right lobe (caudate nucleus) of the brain of each mouse. A total of 94 mice were inoculated. Ten days after cell inoculation, bioluminescence were measured by Xenogen IVIS Lumina II machine, 70 mice were selected and randomly assigned into 7 groups based on bioluminescence intensity and bodyweight. The mice were dosed according to Table 25.

[7] = test system: ACHN-luc2; test: CellTiter-Glo anti-proliferation assay, ACHN-luc2; type: cell-based
Experimental: as §1, §2, §3, §4, §5, §6, §7

[8] = test system: NCI-H460-luc; test: CellTiter-Glo anti-proliferation assay, NCI-H460-luc; type: cell-based
Experimental: as §1, §2, §3, §4, §5, §6, §7

[9] = test system: MOLT-4-luc; test: CellTiter-Glo anti-proliferation assay, MOLT-4-luc; type: cell-based
Experimental: as §1, §2, §3, §4, §5, §6, §7

[10] = inhibition rate, 6 days, Compound (I) from 10 μM, temozolomide from 100 μM, 3-fold, 9 points
[11] = 144 h, 6 days incubation, read-out: Absolute GI50
[12] = Group 6: Temozolomide 1 mg/kg PO, PG-D27

Cn1nnc2c(C(N)=O)ncn2c1=O [Temozolomide, reference compound] was tested, and the GI50 ([1]; KM12-Luc, 144 h, 6 days incubation, read-out: Absolute GI50) was over 100 µM, the “Max (%)” value [1, 10] was 1.6% and the “Min (%)” value [1, 10] was −12.1%. For the same compound, the GI50 [2, 11] was over 100 µM, the “Max (%)” value [2, 10] was 13.0% and the “Min (%)” value [2, 10] was −0.3%. The “Tumor volume (mean ± SEM)” value ([3]; day 0) was 154 ± 12 mm^3, the “Tumor volume (mean ± SEM)” value ([3]; day 3) was 239 ± 18 mm^3 and the “Tumor volume (mean ± SEM)” value ([3]; day 7) was 306 ± 17 mm^3. The “Tumor volume (mean ± SEM)” value ([3]; day 10) was 346 ± 22 mm^3, the “Tumor volume (mean ± SEM)” value ([3]; day 14) was 358 ± 22 mm^3 and the “Tumor volume (mean ± SEM)” value ([3]; day 17) was 395 ± 30 mm^3. The “Tumor volume (mean ± SEM)” value ([3]; day 21) was 411 ± 31 mm^3, the “Tumor volume (mean ± SEM)” value ([3]; day 24) was 423 ± 35 mm^3 and the “Tumor volume (mean ± SEM)” value ([3]; day 28) was 473 ± 44 mm^3. The T/C [3, 12] was 74.94%, the TGI [3, 12] was 33.24% and the “Tumor Size” value [3, 12] was 473 ± 44 mm^3. The GI50 [4, 11] was over 100 µM, the “Max (%)” value [4, 10] was 22.9% and the “Min (%)” value [4, 10] was 6.5%. For the same compound, the GI50 [5, 11] was over 100 µM, the “Max (%)” value [5, 10] was 5.6% and the “Min (%)” value [5, 10] was −13.1%. For the same compound, the Median survival [6] was 44 days, the GI50 ([7]; ACHN-luc2, 144 h, 6 days incubation, read-out: Absolute GI50) was over 100 µM and the “Max (%)” value [7, 10] was 20.0%. For the same compound, the “Min (%)” value [7, 10] was 2.8%, the GI50 ([8]; NCI-H460-Luc, 144 h, 6 days incubation, read-out: Absolute GI50) was over 100 µM and the “Max (%)” value [8, 10] was 7.2%. The “Min (%)” value [8, 10] was 4.8%, the GI50 [9, 11] was over 100 µM and the “Max (%)” value [9, 10] was 23.2%. For the same compound, the “Min (%)” value [9, 10] was −2.2%.
